Three compounds from patent US9604987B2, “Synthesis of autophagy inducing compound and the uses thereof” (Hong Kong Baptist University, priority 2012, dated 2017) can be followed below.

One experiment relates to N2a cells. The experiment can be described thus: Western blot of autophagy marker LC3-II in N2a cells. It counts as cell-based, mouse. Particulars: for pro-autophagic activity (LC3II protein signal): various concentrations, 12 hrs. As to the method: Native and denatured PAGE and Western blotting analysis. Samples to be run under denaturing conditions were lysed with RIPA lysis buffer (150 mM NaCl, 50 mM Tris-HCl, 0.35% sodium deoxycholate, 1 mM EDTA, 1% NP40, 1 mM PMSF, 5 μg/ml aprotinin, 5 μg/ml leupeptin). Samples for native gels were lysed with detergent-free lysis buffer (50 mM Tris/HCl pH 7.4, 175 mM NaCl, 5 mM EDTA pH 8.0, 1 mM PMSF, 5 μg/ml aprotinin, 5 μg/ml leupeptin), and sheared 5 times through a 28-gauge needle followed by 2 times of sonication for 5 seconds according to previously described protocol. For denaturing, SDS-PAGE was performed using Tris-Glycine SDS running buffer and SDS sample buffer, and for native conditions, native-PAGE was run with detergent-free Tris-Glycine running buffer (BN2007, Invitrogen) and 4× native sample buffer (BN2003, Invitrogen) on a pre-casted native PAGE gel (BN1002BOX, Invitrogen). The proteins on the gels were then transferred to PVDF membrane (RPN303F, GE Healthcare) and processed for immunoblotting. Membranes were blocked with 5% non-fat milk and probed with the appropriate primary and secondary antibodies. The desired bands were visualized using the ECL kit (32106, Pierce). The band density was quantified using the ImageJ program and normalized to that of the control group.
In order to confirm the neuronal autophagy inducing activity of Cory B (its chemical structure is shown in FIG. 1A), mouse neuroblastoma N2a, rat phenochromocytoma PC12 and human neurobastoma SH-SY5Y are treated with different concentrations of Cory B for 24 hours and cell lysates are subjected to western blotting analysis of LC3-II expression which is an autophagy-specific marker.
To confirm that enhancement of autophagy markers by Cory B is due to induction of autophagy rather than blockage of autophagosome maturation, N2a cells are treated with 25 μM Cory B or 30 μM lysosome inhibitor CQ together with Cory B for 12 hours. Cell lysates are subject to western blot analysis. Data are presented as the mean±SEM from 3 independent experiments (***p<0.001, one-way ANOVA for multiple comparison and Tukey's test as post hoc test). Both LC3-II levels and the number of GFP-LC3 puncta in the Cory B and CQ co-treatment group are much higher than in the CQ-alone treatment group (FIG. 2A-D). Meanwhile, Cory B induces GFP-LC3 puncta formation is abolished by treatment of 5 mM autophagy inhibitor 3-MA for 24 hours (FIG. 2C, D). Cells were fixed in 4% paraformaldehyde and analyzed under a confocal microscope. Data are presented as the mean±SEM of one representative experiment from three independent experiments. (***p<0.001, one-way ANOVA for multiple comparison and Tukey's test as post hoc test). […] Thus, Cory B is indeed an autophagy inducer in neuronal cells.
To compare the activities of oxindole alkaloids on autophagy induction, LC3II expression levels in N2a cells after treatment with Corynoxine B (Cory B) (FIG. 8A), Corynoxine (Cory) (FIG. 8B), Rhynchophylline (Rhy) (FIG. 8C) and Isorhynchophylline (IsoRhy) for 12 hours are examined.
In order to examine the pro-autophagic activities of the synthesized Cory B analogues, neuroblastoma 2a, a neuronal cell line, are treated with various concentrations of the analogues for 12 hrs. The cells are then harvested and lysed with RIPA buffer (150 mM NaCl, 50 mM Tris-HCl pH 7.4, 0.35% sodium deoxycholate, 1 mM EDTA, 1% NP40, 1 mM PMSF, 5 μg/ml aprotinin, 5 μg/ml leupeptin). The sample are lysed on ice with occasional vortex for 30 min, and then centrifuged at 14,000 rpm for 15 min at 4° C. The supernatant are collected and denatured at 95° C. in sample buffer for 5 min. The denatured samples are then separated on 15% SDS-PAGE gels and transferred to PVDF membrane. Membranes are then blocked with 5% non-fat milk and probed with appropriate primary and secondary antibodies. The protein signals of LC3II, marker protein of autophagy, are finally visualized with ECL kit and the protein bands density are quantified by ImageJ program. […]
(A western blot detects proteins with antibodies after separation by electrophoresis.)

Another experiment deals with Drosophila fat body. The experiment can be described thus: Atg8a-EGFP puncta in Drosophila fat body (confocal). In kind it is in vivo. As to conditions: L3 larvae, 100 μM, 6 hours. On the procedure:
To further test whether CB6 and CB8 could induce autophagy in vivo, Drosolphila expressing Atg8a-GFP (Atg8a, Drosophila homologue of LC3) are obtained by crossing Cg-GAL4, a GAL4 line drives transgene expression in fat body, with UAS-Atg8a-EGFP. Crossed flies are allowed to lay eggs for 1 hour, 90 hours later, the L3 larvae are collected and treated with 100 μM of Cory B, CB6 and CB8 for 6 hours respectively. After treatment, the fat body lobes of the larvae are harvested with fine forceps and fixed with 4% PFA in PBS at room temperature for 15 minutes. Fat body lobes are then washed with PBS three times and subsequently mounted with VECTASHIELD hardset anti-fade mounting medium. The slides are then subjected to confocal microscopy analysis.
Crossed flies were allowed to lay eggs for 1 hr, 90 hrs later, the L3 larvae were collected for further treatment. The compounds were firstly dissolved in DMSO and then diluted to the desired concentration with ddH2O and then mixed thoroughly with instant fly food. The L3 larvae were placed in the prepared food and received treatment for 6 hrs. After treatment, the fat body lobes of the larvae were harvested with fine forceps and fixed with 4% PFA in PBS at room temperature for 15 min. Fat body lobes were then washed with PBS three times and subsequently mounted with VECTASHIELD hardset antifade mounting medium. […]

Turning to `CCCN1C(=O)[C@]2(CCN3C[C@@H](CC)[C@@H](/C(=C\OC)C(=O)OC)C[C@H]32)c2ccccc21` [CB6], the “pro-autophagic activity (LC3II protein signal)” value in the experiment on N2a cells (N2a) is “novel autophagy inducer”. Besides, the “autophagy in vivo (Atg8a-EGFP puncta)” value in the experiment on Drosophila fat body is given as “able to induce autophagy”.

As for `C=CCN1C(=O)[C@]2(CCN3C[C@@H](CC)[C@@H](/C(=C\OC)C(=O)OC)C[C@H]32)c2ccccc21` [CB8], in the experiment with N2a cells (N2a), the “pro-autophagic activity (LC3II protein signal)” value is “novel autophagy inducer”. In addition, in the experiment on Drosophila fat body, the “autophagy in vivo (Atg8a-EGFP puncta)” value is “able to induce autophagy”.

As for `CC[C@@H]1CN2CC[C@]3(C(=O)Nc4ccccc43)C2C[C@@H]1C(=COC)C(=O)OC` (stereo partly shown) [Cory B, Corynoxine B], the “LC3-II levels and number of GFP-LC3 puncta, co-treatment with CQ versus CQ alone” value with N2a cells (25 μM Cory B + 30 μM CQ, 12 hours) is “much higher”. Moreover, the LC3-II levels entry in the experiment with N2a cells (N2a, 0-25 μM, 24 hours) is “increases levels of LC3-II”. In addition, the “autophagy induction (LC3II expression level)” value with N2a cells (N2a, oxindole alkaloids, 12 hours) is “significantly activate autophagy”.
